# Results taken from a melting point compilation (Tetko et al.).
row,SMILES,melting point [°C]
1,CC(C)(C)C(O)C(=Cc1ccc(Cl)cc1)n1cncn1 (stereo not drawn),153
2,Nc1cccc(CN2CCCCC2)c1,106 to 109
3,CC(=O)CCC1C(=O)N(c2ccccc2)N(c2ccccc2)C1=O,116
4,O=C(N[C@@H](Cc1ccc(F)cc1)C(=O)O)OCC1c2ccccc2-c2ccccc21,185
5,CC(=O)c1c(O)c(C)c(O)c(Cc2c(O)c3c(c(C(=O)C=Cc4ccccc4)c2O)OC(C)(C)C=C3)c1O,212
6,CCOC(=O)C=Cc1ccc(N)cc1,73
7,CS(=O)c1cccc(CC(=O)O)c1 (stereo not drawn),111
8,COC(=O)c1cnc(SC)nc1,96 to 97
9,Cc1cc(N)c(N)cc1Cl,137 to 140
10,COC(=O)C=P(c1ccccc1)(c1ccccc1)c1ccccc1,164 to 169
11,Cc1c(NC(=O)C(C)N(C)C)c(=O)n(-c2ccccc2)n1C (stereo not drawn),181
12,Ic1cccc(Cn2cncn2)c1,53 to 55
13,COc1ccc2[nH]cc(CCN)c2c1,122
14,O=C(O)CC(F)(F)F,9.7
15,O=C(O)C#Cc1cccc(C#CC(=O)O)c1,209
16,CC(=O)O[Si](C)(C)OC(C)=O,-12.5
17,CSC(=Nc1ccccc1)C(C#N)=C(N)SC,177
18,CO[C@@H](C)C(N)=O,80 to 84
19,CN(N)c1ccc(C(F)(F)F)cc1[N+](=O)[O-],68 to 70
20,COC(=O)C1=C(C)NC(=O)C1CC(=O)O (stereo not drawn),160 to 162
21,Cc1ccc(Oc2ccc(Br)cc2)nn1,120
22,Clc1cc2c(oc3c(Cl)cccc32)c(Cl)c1Cl,190
23,CCCCNCC(O)c1ccc(O)cc1 (stereo not drawn),124

row,SMILES,melting point [°C]
1,O=C(C1CCCNC1)N1CCCC1 (stereo not drawn),57 to 64
2,COc1ccc(C2(C)CCc3oc4ccccc4c3-c3oc(C)cc32)cc1 (stereo not drawn),145
3,Cc1c(S(=O)(=O)Cl)cnn1-c1ccccc1,57
4,NC(CC(=O)O)c1ccccc1 (racemic),222
5,CC(=O)CN1C(=O)N2CCc3ccccc3C2(c2ccc(Cl)cc2)C1=O (stereo not drawn),173 to 175
6,NC(=O)/C(=C\c1ccc(Cl)cc1Cl)c1nc2ccccc2s1,263
7,Cc1ccc(NC(=O)C(C(F)(F)F)C(F)(F)F)c(C)c1,193
8,O=[N+]([O-])c1ccc(S)cc1,74 to 77
9,O=C(O)c1cc([N+](=O)[O-])c(Cl)c([N+](=O)[O-])c1Cl,210 to 215
10,CCOC(=O)/C(C#N)=C/c1ccc(-c2ccc(Cl)cc2)o1,140
11,Cc1[nH]c2cc(C(=O)O)ccc2c1C,150
12,Brc1ccc2[nH]cnc2c1,130 to 131
13,Cc1c(C)c(C)c(CC#N)c(C)c1C,112
14,COc1ccccc1C(=O)Oc1ccc(C(=O)/C=C/c2ccc(N(C)C)cc2)cc1,99
15,CCCC1CC(C(=O)NC(C(C)O)C2OC(SC)C(O)C(O)C2O)N(C)C1 (stereo not drawn),295
16,CC(CCC(C(=O)O)C(C)C)C(=O)O (stereo not drawn),104
17,CC(C)(C)C(CCC(=O)O)CC(=O)O (stereo not drawn),114 to 117
18,N#CC1(N=NC2(C#N)CCCCC2)CCCCC1,116
19,CCCNC(N)=S,120 to 123
20,CCOC(=O)c1cccc(O)c1,74
21,CCOc1cc(NC(=O)c2ccccc2)c(OCC)cc1N,98 to 100
22,NC(=O)c1c(F)cccc1Cl,141
23,O=c1[nH]nc(-c2ccccc2)c(=S)n1-c1ccc(F)c(Cl)c1,138

row,SMILES,melting point [°C]
1,Cn1c(/C(C#N)=N/Nc2ccc([N+](=O)[O-])cc2)nc2ccccc21,238
2,Nc1cnc(N)c(Br)c1,117 to 122
3,COc1ccc(/C=C(\C#N)c2nc(-c3ccco3)cs2)cc1,109
4,C=COCCCCCCCCCC,-41
5,CCOC(=O)C=C1SC(N2CCCCC2)C(=O)N1CC (stereo not drawn),86
6,CCOC(=O)CCC(C)C1CCC2C3C(=O)CC4CC(O)CCC4(C)C3CC(O)C12C (stereo not drawn),161
7,O=C1CCc2ccccc2C1,18
8,CC(C)C[C@H](NC(=O)OCC1c2ccccc2-c2ccccc21)C(=O)O,153 to 157
9,CC#CCN1C(=O)c2ccccc2C1=O,221
10,C[Si](C)(C)N(c1ccccc1)[Si](C)(C)C,16.5
11,CCCCCCCCCCCCCCCCCCc1ccccc1,29
12,NS(=O)(=O)c1cc2c(cc1C(F)(F)F)NCNS2(=O)=O,272
13,Nn1nnc2ccccc21,81 to 85
14,Cc1c(O)c(Br)c(Br)c(Br)c1Br,209 to 213
15,CC(C)CC(C)O (stereo not drawn),-90
16,CCOC(=O)c1ccc(C#N)cc1,54
17,N#Cc1cc(C(F)(F)F)ccc1N1CCOCC1,53 to 55
18,CCCCc1cc2ccccc2c(O)c1C(C)=O,62
19,O=Cc1ccc(-c2cccc([N+](=O)[O-])c2)o1,156 to 158
20,Cc1ccnc(NS(=O)(=O)c2ccc(N)cc2)n1,234
21,CCCCc1ccc(C(=O)O)cc1,106
22,CC(C)(C)S(=O)(=O)c1cnc(N2CCCC2)nc1N,199 to 201
23,C[Si]1(c2ccccc2)O[Si](C)(c2ccccc2)O[Si](C)(c2ccccc2)O1 (stereo not drawn),100

row,SMILES,melting point [°C]
1,O=C(O)CNc1ccccc1C(=O)O,218
2,O=C(OCc1ccccc1)c1cnc(Cl)nc1C(F)(F)F,45 to 47
3,Cc1ccc(C(C)CCC(=O)O)cc1 (stereo not drawn),42
4,C=C(C)C(=O)NCO,-37
5,CC1(C)OC(=O)C(=Cc2ccc(Cl)cc2Cl)C(=O)O1,156
6,Cc1ccc2cccc(C)c2c1,-13.9
7,O=C1CN=C(c2ccccc2F)c2cc(Cl)ccc2N1CC1CC1,118
8,CCCCCCNC(=O)n1cc(F)c(=O)[nH]c1=O,110
9,CCC(C)(C)C(=O)O,-14
10,Cc1cnc(Cl)nc1Cl,26
11,COc1ccc(C(=O)c2coc(S(N)(=O)=O)c2)cc1,181
12,CC1(C)C2CCC1(C)C(NC(=S)Nc1ccccc1)C2NC(=S)Nc1ccccc1 (stereo not drawn),178
13,Cc1cc(=O)oc2cc(O)ccc12,194
14,O=C(c1ccc(O)cc1)c1ccc(O)cc1O,197 to 198
15,CSC(S)=Nc1ccc(C)cc1,175 to 176
16,Cc1ccc(C)c([N+](=O)[O-])c1,-25
17,COc1ccc(CCC(C)=O)cc1,8
18,CCCCCCCCCC(C)CC (stereo not drawn),-53
19,CC(C)(Oc1ccc(Cl)cc1)C(=O)OCCOC(=O)c1cccnc1,100
20,CCS(=O)(=O)CCO,46
21,O=C(ON=C(c1cc2ccccc2o1)c1cc2ccccc2o1)c1ccccc1,154 to 155
22,CC(Cl)OC(=O)Cl (stereo not drawn),-65
23,Nc1cccc2cc3ccccc3nc12,108

row,SMILES,melting point [°C]
1,COc1ccc2occc2c1,31 to 33
2,Cn1cc(CCC(=O)O)c(=O)n(C)c1=O,225
3,C(=C(c1ccccc1)c1ccccc1)=C(c1ccccc1)c1ccccc1,140
4,COC(=O)c1cc(N)cc(O)c1,124 to 126
5,CCOC(=O)C(C(=O)OCC)C(Br)c1cc(C(Br)C(C(=O)OCC)C(=O)OCC)c([N+](=O)[O-])cc1[N+](=O)[O-] (stereo not drawn),130
6,FC(F)(F)C(Cl)C(F)(F)F,-120
7,O=C(CCl)Oc1ccccc1,44.5
8,N[C@@H](CS)C(=O)O,240
9,Cc1ccc([N+](=O)[O-])c(N)c1C,117 to 122
10,CC(=O)c1occc1O,100
11,CC(=NO)c1ccc(F)cc1,72 to 74
12,CCOC(=O)c1c[nH]c(=S)[nH]c1=O,252
13,COc1cc(C)c2c(c1)CC2=O,83
14,COC(=O)c1ccccn1,18.7
15,O=C(O)c1ccccc1OC(F)(F)F,79
16,O=C(O)c1ccc(C(F)(F)F)cc1C(F)(F)F,109 to 113
17,O=C1C=CC=C2CC1=CC=CC2=O,147
18,O=Cc1nc(-c2ccccc2Cl)c2cc(Cl)ccc2n1,159 to 160
19,O=C(O)Cc1cn(-c2ccccc2)nc1-c1ccc(Cl)cc1,150
20,Cn1ccc2cc(Br)ccc21,43 to 44
21,Fc1c(F)c(CCl)c(F)c(F)c1CCl,77 to 78
22,O=C(CO)CO,90
23,COC(=O)C=Cc1ccccc1,36

row,SMILES,melting point [°C]
1,c1cc(-c2csnn2)ccc1OCC1CO1 (stereo not drawn),70 to 72
2,Brc1cccc2c1Oc1ccccc1O2,104
3,CNc1nc(NC(C)C)nc(SC)n1,85
4,FC(F)(F)C#CC(F)(F)F,-117
5,C=COC(C)=O,-93.2
6,CCCCCCC(O)CCCCCCCCCCC(=O)O (stereo not drawn),77.8
7,COC(C)COC(C)CO (stereo not drawn),-83
8,Nc1ccccc1/C=C/c1cc(/C=C/c2cccc([N+](=O)[O-])c2)c([N+](=O)[O-])cc1[N+](=O)[O-],250
9,CC(=O)Oc1ccc(C(c2ccc(OC(C)=O)cc2)c2ccccn2)cc1,134
10,COCCN1CCCNCC1,67
11,O=C(O)c1cc(F)nc(F)c1F,125 to 127
12,CC(C)(C)NC(=O)c1ccccc1,134
13,CCN1C(=O)NC(c2ccccc2)C1=O (stereo not drawn),94
14,CCC(C#N)CC#N (stereo not drawn),-41
15,CCCCCCCC=O,12.5
16,CCCCCCCCCCC=CCCCCCCCC(=O)O,23
17,O=C(c1ccc2ccccc2c1)c1noc(-c2ccc(Cl)cc2)c1S(=O)(=O)c1ccccc1,165
18,N[C@@H](CSCC(=O)O)C(=O)O,206
